Experimental findings from patent US20250049776A1, “AUTOPHAGY INDUCING COMPOUNDS AND USES THEREOF, IN PARTICULAR FOR A SYSTEMIC TREATMENT OF DISEASES AND CONDITIONS” (Samsara Therapeutics Inc., priority 2021, published 2025) are described below.

Where a name gives a salt, the structure may show the parent alone.

Assay [1] has as its system Human osteosarcoma U20S cells. Kind of assay: Assay to measure lysosome and autolysosome formation (acidic vesicle formation, LysoView/LysoTracker staining). The assay is classed as cell-based. Conditions: Homo sapiens; U2OS cells, concentration of 0.8 μM; read-out: Activity (percentage increase in acidic vesicle formation over the DMSO-treated control), Table 2. The procedure, abridged: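 U2OS cells treated with compounds in DMSO for 24 h, then stained 45 min at 37 °C with 1× LysoView 633 or 50 nM LysoTracker Deep Red, with Hoechst nuclear counterstain. Live-cell fluorescence imaging at 37 °C; acidic vesicle formation judged against DMSO-treated control.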

In assay [2] the test system is U2OS cell line stabling expressing RFP-eGFP-hLC3b. Kind of assay: Tandem reporter assay (autophagic flux, RFP-only puncta). Type of assay: cell-based. The settings on record: Homo sapiens, RFP-only puncta as percentage of DMSO-treated control, 24 hours; for activity at 1 µM: read-out: Autolysosome % DMSO activity (compound concentration of 1 μM); for activity at 10 µM: read-out: Autolysosome % DMSO activity (compound concentration of 10 μM). The procedure: Selected compounds of this invention were also assessed for their ability to stimulate autophagy using a U20S cell line stabling expressing RFP-eGFP-hLC3b (a tandem reporter cell line). During the process of autophagy, the cargo to be degraded is first enveloped by organelles called autophagosomes. These autophagosomes then fuse with lysosomes, causing them to become acidified and their digestive enzymes to become activated. The term “autophagic flux” is used to represent the dynamic process of autophagy: autophagic flux refers to the whole process of autophagy, including autophagosome formation, maturation, fusion with lysosomes, subsequent breakdown and the release of macromolecules back into the cytosol (Zhang X J, Chen S, Huang K X, Le W D. Why should autophagic flux be assessed? Acta Pharmacol Sin. 2013 May; 34(5): 595-9. doi: 10.1038/aps.2012.184. Epub 2013 Mar. 11). Compounds that stimulate autophagic flux stimulate the dynamic process of autophagy (the whole process of autophagy).
LC3b is a protein found in the membrane of autophagosomes which has been used to generate genetic reporters of autophagy in cells. In these systems a tandem fusion of LC3b is engineered with two fluorescent proteins of different wavelengths: one which is acid sensitive (for example eGFP, which fluoresces green) and the other which is acid insensitive (for example RFP, which fluoresces red). Cells expressing RFP-eGFP-hLC3b can be examined using fluorescent microscopy: the autophagosomes present will fluoresce in both channels (either yellow in an overlay of both channels or puncta that are present in both the individual red and green channels) but the autolysosomes present will fluoresce in the RFP (red) channel only. Using a fluorescent microscope, the number of autophagosomes and autolysosomes can be counted, allowing for the monitoring of both the induction of autophagy (total puncta count) and the rate of autophagic flux (ratio of red-only to red-and-green puncta). The influence of small molecules on autophagy induction and flux can be assessed using this system by comparison to a non-treated control.
Representative Procedure: Human osteosarcoma U2OS cells stably expressing RFP-eGFP-hLC3b were seeded (10,000 cells/well) into a 96-well glass-bottom plate (Cell Carrier Ultra, Perkin Elmer) in DMEM Glutamax media (Gibco) supplemented with 10% Fetal Bovine Serum (FBS) and antibiotics (100 u/ml penicillin, 100 μg/ml streptomycin, Invitrogen), then incubated overnight in a humified atmosphere at 37° C. and 5% CO2. The cells were then treated with the compounds of interest, dissolved in DMSO, in a duplicated 5- or 10-point dose-response. 8 wells were treated with an equivalent volume of DMSO, 4 with 0.3 μM torin-1 as a positive control (MCE) and 4 wells with 0.4 μM torin-1 plus 0.2 μM bafilomycin (MCE) as a control for flux inhibition. The cells were returned to the incubator and the treatment continued for 24 hours. After treatment, the media was aspirated off and the cells fixed with a solution of 4% formaldehyde+1% glutaraldehyde (Sigma) in dPBS (plus magnesium and calcium, Gibco).
Fixation was allowed to proceed for 15 minutes at room temperature then the fixative solution discarded and replaced with PBS (Gibco) plus Hoescht 33342 ([…], Sigma). After 30 minutes the plates were imaged on an Opera Phenix confocal microscope (Perkin-Elmer) using a 40× water objective, collecting using DAPI, mCherry and GFP channels. Cells were detected based upon the staining of their nuclei with DAPI using the Harmony image analysis software (Perkin-Elmer) and the number of autophagosomes (GFP and RFP puncta) and autolysosomes (RFP only puncta) per cell were counted using the spot picking function within the software.
(In a reporter assay the amount or activity of a reporter protein is the signal.)

Regarding `CC(C)N(C(=O)c1csc(-c2cnn(-c3ccccc3)c2)n1)C1CCNCC1` [Compound 163, N-isopropyl-2-(1-phenyl-1H-pyrazol-4-yl)-N-(piperidin-4-yl)thiazole-4-carboxamide hydrochloride], in assay [1], the activation at 0.8 µM is 10 to 30%. In addition, in assay [2], the activity at 1 µM was 144% and the activity at 10 µM came to 187%.

Turning to `CCCN(C(=O)c1csc(-c2cnn(-c3ccccc3)c2)n1)[C@@H]1CCNC1` [Compound 171, (R)-2-(1-phenyl-1H-pyrazol-4-yl)-N-propyl-N-(pyrrolidin-3-yl)thiazole-4-carboxamide hydrochloride], the activation at 0.8 µM in assay [1] was 10 to 30%. Also, in assay [2], the activity at 1 µM is 200% and the activity at 10 µM was determined as 294%.
